How the values were obtained:
Format in all cases: cell-based
[1] = system: T1, isoprene monooxygenase (IsoMO) of Rhodococcus sp. AD45; test: inhibition of isoprene uptake, headspace gas chromatography; details: whole cells; about 5 μM isoprene in liquid; 50 mM phosphate pH 7.0, 30°C; alkyne in DMSO
T1 construct: gene isoA; native enzyme in whole cells of isoprene-grown bacteria; four-component soluble diiron monooxygenase, a2b2g2 oxygenase; with Isoprene monooxygenase oxygenase component subunit gamma; Isoprene monooxygenase Rieske-type ferredoxin component; Isoprene monooxygenase oxygenase component subunit beta

[2] = system: T2, isoprene monooxygenase (IsoMO) of Variovorax sp. WS11; test: headspace isoprene depletion by gas chromatography, whole cells; details: whole fermentor-grown cells; O2 co-substrate; read-out: K m(app)
T2 construct: gene isoA; native enzyme in whole fermentor-grown cells; iso genes on a megaplasmid; with Isoprene monooxygenase oxygenase component subunit gamma; Isoprene monooxygenase Rieske-type ferredoxin component; Isoprene monooxygenase oxygenase component subunit beta
From the text: headspace isoprene depletion by gas chromatography, whole cells on isoprene monooxygenase (IsoMO) of Variovorax sp. WS11

[3] = system: T1, isoprene monooxygenase (IsoMO) of Rhodococcus sp. AD45; test: headspace substrate depletion, whole cells, non-linear regression; details: whole isoprene-grown cells; 50 mM phosphate pH 7.0, 30°C; O2 co-substrate; read-out: K m(app)
From the text: headspace substrate depletion, whole cells, non-linear regression on isoprene monooxygenase (IsoMO) of Rhodococcus sp. AD45

| SMILES | % inhibition at 50 μM [1] [%] | Km [2] [µM] | Km [3] [µM] |
| --- | --- | --- | --- |
| C#CCCCCCC [1‐octyne] | 74 |  |  |
| C=CC(=C)C [isoprene, 2‐methyl‐1,3‐butadiene] |  | 10.5 ± 3.9 | 4 ± 1.3 |
| C=CC [propylene] |  |  | 2 ± 0.8 |

From paper PMC10667655 (Environmental Microbiology Reports, 2023)
